The test system of experiment [1] is IMR-90 cells expressing MycER. Put plainly: Cell death on acute activation of MYC (MycER + 4-OHT), IMR-90. Particulars: IMR-90 MycER, 3 days; for cell death, agent alone: single agent. In kind it is cell-based, human. As for the experimental part: (§1) Cell viability was determined by the trypan blue exclusion assay. Each column represents the average of 3 independent experiments, and each experiment was done in triplicate. Error bars represent one standard deviation. FIG. 1(B) illustrates the cytotoxicity of H-1152 for normal cells and a MYC-overexpressing human cancer cell line IM-9. H-1152 was applied to the indicated cells at 6 μM for 3 days. Cell viability, was determined by the trypan blue exclusion assay. A representative experiment is shown. […] Rat1A cells harboring either an empty vector or various indicated oncogenes were treated with either 0.1% DMSO or 6 μM H-1152 for 3 days. Cell viability was determined by the trypan blue exclusion assay. Each column represents the average of 3 independent experiments, and each experiment was done in triplicate. Error bars represent one standard deviation. […] Rat (Rat1A) or human (HA1E and IMR-90) cells expressing either MycER or MycNER were incubated with or without 6 μM H-1152 and/or 200 nM 4-OHT for 3 days. Cell viability was determined by the trypan blue exclusion assay. A representative experiment is shown.
(§2) In order to negate the possibility that sustained expression of MYC gene has given rise to unidentified targets affected by H-1152, sensitivity of H-1152 in acutely activated cells was measured. Acute activation of MYC was exploited by means of a MYC-estrogen receptor chimera. This receptor is rapidly activated by the addition of 4-hydroxy-tamoxifen (“4-OH”). […] FIG. 1D. A similar experiment was conducted with acute activation of the MYCN gene. MYCN shares high sequence similarity and crucial biochemical and genetic activities with MYC. […] Accordingly, H-1152 elicits MYC-dependent cell lethality irrespective of whether MYC is constitutively expressed or acutely activated. Furthermore, this sensitivity holds true for both fibroblasts cells and epithelial cells.

Experiment [2] has as its system HA1E cells expressing MycER. Put plainly: Cell death on acute activation of MYC (MycER + 4-OHT), HA1E. Particulars: 3 days; for cell death, agent alone: single agent. The experiment is classed as cell-based, human. The protocol:
as §1, §2

Experiment [3] has as its system RPE-MYC cells. As to the kind of experiment: Apoptosis assays (immunofluorescence, Mitotracker) in RPE-MYC cells. The experiment is classed as cell-based, human. Conditions: 6 μM. As for the experimental part: RPE-MYC cells were exposed to 6 μM H-1152 for 48 hours and then incubated for 30 minutes with 40 nM MITOTRACKER Red (Molecular Probes) and fixed. Fixed cells were stained for DNA with DAPI (in blue) and then analyzed with a confocal laser microscope. Arrowheads indicate apoptotic nuclei. Scale bar, 10 μm. See Appendix A—for Immunofluorescence Microscopy method. […] RPE-MYC and RPE-NEO cells were treated with 0.1% DMSO or 6 μM H-1152 for 3 days and then subjected to the indicated assays. Each column represents the average of 3 independent experiments, and each experiment was done in triplicate. Error bars represent one standard deviation.
FIG. 2B. […] FIB 2A. […]
Cells are cultured on coverslips in a 6-well plate, fixed with 4% paraformaldehyde or 4% paraformaldehyde followed with methanol treatment, and then permeabilized with 0.3% Triton X-100. […] Primary antibodies are detected with Texas red-conjugated or fluorescein isothiocyanate-conjugated secondary antibodies that may be purchased from Jackson ImmunoResearch. […]
For determination of mitochondrial membrane potential, cells are cultured on cover slips and exposed for 30 min at 37° C. with 40 nM Mitotracker# Red CMXRos (Molecular Probes), a dye that accumulates in mitochondria as a function of the mitochondrial potential. […] For fluorescence detection, an EVOS FL auto microscope (THERMO FISHER) can be used.

For experiment [4], the system named is cells expressing MYCN-estrogen receptor chimera. As to the kind of experiment: Cell death on acute activation of MYCN (MycNER + 4-OHT). The experiment is classed as cell-based. Conditions: MYCN-ER activated with 4-OHT, H-1152 application. The protocol:
as §1
In order to negate the possibility that sustained expression of MYC gene has given rise to unidentified targets affected by H-1152, sensitivity of H-1152 in acutely activated cells was measured. Acute activation of MYC was exploited by means of a MYC-estrogen receptor chimera. […]

Experiment [5] concerns RPE-NEO cells. Put plainly: Trypan blue exclusion cell viability assay in RPE-NEO cells. The experiment is classed as cell-based, human. Particulars: 6 μM H-1152, 3 days. The protocol: as §1
In order to confirm that H-1152 elicits cytotoxicity in cells overexpressing MYC, human retinal pigment epithelial cells were stably transfected with either MYC or a Neomycin selection marker gene (“NEO”) in combination with hTERT. […]

For experiment [6], the system named is normal cells and immortalized cells. Put plainly: Trypan blue exclusion cell viability assay in normal and immortalized cells. Conditions: 6 μM, 3 days. The experiment is classed as cell-based. As for the experimental part: as §1
(§3) The result after 3-days treatment were similar. […] The one observed exception is the IM-9 cells that overexpress MYC. Cell lethality in the IM-9 cell line was approximately 30% after H-1152 treatment for 3 days. FIG. 1B.

Experiment [7] concerns IM-9 cells. Put plainly: Trypan blue exclusion cell viability assay in IM-9 cells. The experiment is classed as cell-based, human. Particulars: IM-9, 6 μM, 3 days. As for the experimental part:
as §1, §3

In experiment [8] the test system is NCI-H2199 xenograft tumors. As to the kind of experiment: Xenograft tumor growth in athymic mice, NCI-H2199. In kind it is in vivo. Particulars: Myc^low NCI-H2199, 60 mg/kg oral gavage twice a day. The text has this: (§4) FIG. 7. illustrates how H-1152 elicits therapeutic efficacy against tumorigenesis of cancer cells that overexpress MYC. […] Extracts from four human cancer cell lines (1. NCI-H524, 2. NCI-H841, 3. NCI-H211, 4. NCI-H2199) were blotted for MYC and tubulin by Western blotting. […] See Appendix D for Method of Mouse In Vivo Assay. Two Myc^high cell lines and two Myc^low cell lines were implanted subcutaneously into athymic mice (One to ten millions of cells per injection). When tumors reached approximately 50-70 mm^3, tumor-bearing mice were randomized to receive oral gavage with either vehicle of H-1152 (60 mg/kg body weight per injection) twice a day until the endpoint. The tumor volume was determined at the indicated time points.
(§5) To determine whether tissue culture results can be replicated in vivo, two cell lines from Myc^High group, namely NCI-H841 and NCI-H524, and two cell lines from Myc^low group, namely NCI-H211 and NCI-H2199. […]
(§6) Experimental mice are housed and treated according to the protocol approved by the Institutional Animal Care and Use Committee of MBICR. […] Tumor diameter at injection sites are monitored at the indicated time points with a digital caliper and the volume calculated using the formula: V (mm3)=A×B×B/2, where A and B represent the largest and smallest diameters of the tumor respectively.

Experiment [9] relates to NCI-H211 xenograft tumors. As to the kind of experiment: Xenograft tumor growth in athymic mice, NCI-H211. The experiment is classed as in vivo. Particulars: Myc^low NCI-H211, 60 mg/kg oral gavage twice a day.
From the text: as §4, §5, §6

Experiment [10] concerns Rat1A cells expressing MYC or other oncogenes. Put plainly: Trypan blue exclusion cell viability assay in Rat1A cells harboring various oncogenes. In kind it is cell-based, rat. Conditions: 6 μM, 3 days. The protocol:
as §1
To determine whether cytotoxicity by H-1152 is dependent on MYC-expression or any oncogene, rat 1A cells expressing MYC as well as other active cellular oncogenes were evaluated for lethality. […] FIG. 1C.

In experiment [11] the test system is RPE-MYC cells. As to the kind of experiment: Trypan blue exclusion cell viability assay in RPE-MYC cells. In kind it is cell-based, human. Conditions: 72 hours. The protocol: as §1
FIG. 3(B) illustrates how H-1152, but not other inhibitors of ROCK kinases, preferentially kills RPE-MYC cells. […] Cell viability was determined by the trypan blue exclusion assay. […]

Experiment [12] deals with NCI-H524 xenograft tumors. As to the kind of experiment: Xenograft tumor growth in athymic mice, NCI-H524. In kind it is in vivo. Particulars: Myc^high NCI-H524, 60 mg/kg oral gavage twice a day.
From the text: as §4, §5, §6

In experiment [13] the test system is NCI-H841 xenograft tumors. Put plainly: Xenograft tumor growth in athymic mice, NCI-H841. The experiment is classed as in vivo. Particulars: Myc^high NCI-H841, 60 mg/kg oral gavage twice a day.
From the text: as §4, §5, §6

In experiment [14] the test system is Myc^high human cancer cell lines. As to the kind of experiment: Cytotoxicity in Myc^high human cancer cell lines (trypan blue). In kind it is cell-based. Conditions: 6 μM, 4 days. As for the experimental part:
(§7) FIG. 5. illustrates that MYC abundance is a univariate predicator of the response of human tumor cell lines to H-1152 by showing the cytotoxicity of H-1152 for 75 human cancer cell lines. Cell lines in the Myc^high group and the Myc^low group were treated for four days with either 0.1% DMSO or 6 μM H-1152. Cell viability was then determined by the trypan blue exclusion assay. FIG. 5(A) is a histogram representing the average of two independent experiments. […] Results are presented as the percentage of dead cells in the presence of H-1152 minus that in the presence of DMSO. Red, yellow and green dots represent cell lines with abundant Myc, MycN and L-Myc respectively. Comparison of the two data sets with two-sided Mann-Whitney test indicates p<0.0001.
(§8) The Myc^high group also includes 8 cell lines with abundant MycN expression and 3 cell lines abundantly expressing L-Myc. […] (FIG. 5 A, B). The difference between the two data sets was statistically significant.

The subject of experiment [15] is Myc^low human cancer cell lines. As to the kind of experiment: Cytotoxicity in Myc^low human cancer cell lines (trypan blue). In kind it is cell-based. Particulars: Myc^low group, 6 μM, 4 days. As for the experimental part:
as §7, §8

Experiment [16] has as its target ROCKII (Homo sapiens, UniProt O75116). Particulars: cited from earlier work.
The mark [17] stands for this setting: 6 μM H-1152 together with 200 nM 4-OHT.

ROCKII, sequence (O75116 whole entry, species assumed): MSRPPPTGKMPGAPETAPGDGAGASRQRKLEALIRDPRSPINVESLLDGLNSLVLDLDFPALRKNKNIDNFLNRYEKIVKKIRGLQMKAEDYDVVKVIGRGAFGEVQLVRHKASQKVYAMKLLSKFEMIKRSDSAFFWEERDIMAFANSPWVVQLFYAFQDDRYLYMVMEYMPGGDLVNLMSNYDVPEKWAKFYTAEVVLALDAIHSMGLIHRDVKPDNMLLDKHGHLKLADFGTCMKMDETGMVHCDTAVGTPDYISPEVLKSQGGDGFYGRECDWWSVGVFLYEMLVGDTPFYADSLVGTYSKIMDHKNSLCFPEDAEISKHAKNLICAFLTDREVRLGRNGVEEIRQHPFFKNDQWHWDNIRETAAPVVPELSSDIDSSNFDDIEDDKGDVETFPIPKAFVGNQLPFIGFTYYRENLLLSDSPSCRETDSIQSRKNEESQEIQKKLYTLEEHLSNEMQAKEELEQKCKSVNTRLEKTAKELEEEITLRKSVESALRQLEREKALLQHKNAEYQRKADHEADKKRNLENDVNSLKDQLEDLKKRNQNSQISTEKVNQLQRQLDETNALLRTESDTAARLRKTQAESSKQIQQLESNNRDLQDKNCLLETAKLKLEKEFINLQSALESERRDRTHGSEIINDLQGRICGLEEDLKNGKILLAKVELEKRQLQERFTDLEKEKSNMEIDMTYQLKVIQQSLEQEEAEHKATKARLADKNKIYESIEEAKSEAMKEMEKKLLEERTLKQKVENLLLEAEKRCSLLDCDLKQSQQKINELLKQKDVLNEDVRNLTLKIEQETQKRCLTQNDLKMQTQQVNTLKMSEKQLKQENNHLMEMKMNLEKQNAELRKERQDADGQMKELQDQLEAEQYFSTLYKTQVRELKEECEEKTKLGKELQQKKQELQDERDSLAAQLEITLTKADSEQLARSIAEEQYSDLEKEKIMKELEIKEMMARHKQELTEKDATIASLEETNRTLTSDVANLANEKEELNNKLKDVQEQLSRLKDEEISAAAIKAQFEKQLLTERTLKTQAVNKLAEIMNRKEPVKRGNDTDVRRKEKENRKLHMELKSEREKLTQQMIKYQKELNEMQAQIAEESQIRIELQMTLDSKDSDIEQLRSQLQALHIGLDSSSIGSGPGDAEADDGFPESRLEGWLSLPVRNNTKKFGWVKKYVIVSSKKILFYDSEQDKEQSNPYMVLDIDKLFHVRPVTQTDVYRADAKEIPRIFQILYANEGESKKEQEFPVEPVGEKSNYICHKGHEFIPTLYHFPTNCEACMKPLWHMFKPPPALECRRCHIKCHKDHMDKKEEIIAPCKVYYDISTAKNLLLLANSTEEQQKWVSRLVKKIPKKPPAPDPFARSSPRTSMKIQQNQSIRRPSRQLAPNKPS

Consider 4-hydroxy-tamoxifen [4-OH], for which the “cell death, agent alone” value in experiment [1] and in experiment [2] was “low levels of cell death” in each case.

Take `Cc1cncc2cccc(S(=O)(=O)N3CCCNC[C@@H]3C)c12` [H-1152, dimethylfasudil]: in experiment [3] (48 hours), the “mitochondria-dependent apoptosis pathway events (membrane potential, cytochrome C release, caspase 9)” value is on record as “cell death via activation of the mitochondria-dependent apoptosis pathway”. The “apoptotic features (nuclear condensation, caspase 3 activation, PARP cleavage)” value in experiment [3] (3 days) is “Symptoms of classical apoptosis were recorded”. Moreover, the cell lethality entry in experiment [4] is reported as “high cell lethality”; in experiment [7], “approximately 30%”; in [1] (setting [17]), “over 30%”; in experiment [11] (6 μM H-1152 + 100 μM z-VAD-fmk), 15%; in experiment [2] (setting [17]), “over 30%”. In experiment [5], the cells killed entry is listed as “none”. In experiment [6], the cell toxicity result is recorded as “negligible effect on cell toxicity”. Further, the tumor development result is listed as “failed to impact tumor development” in experiment [8], “failed to impact tumor development” in experiment [9], “stabilized tumor development” in experiment [12] and “slowed down tumor development” in experiment [13]. The “cell death, agent alone” value in experiment [1] and in [2] was “low levels of cell death” throughout. Besides, the “cell death among cells with various active oncogenes” value in experiment [10] is given as “only MYC expressing cells demonstrated cell death”. For the same compound, the “cell death in comparison of ROCK inhibitors” value in experiment [11] was “significant cell death”. In [14], the “cell death across cell lines, Myc^high versus Myc^low” value is reported as “massive cell death in a much higher percentage of cell lines in the Myc^high group”. In addition, the “cell lines that failed to undergo apoptosis” value in experiment [14] (Myc^high group) is listed as 11 of the 51. In addition, in experiment [15], the “cell lines sensitive to H-1152” value is recorded as 3 of 24.

Take `C[C@H]1CNCCCN1S(=O)(=O)c1cccc2cncc(F)c12` [Rapasudil]: the IC50 in [16] is 19 nM.

These data come from patent US20180346995A1, “Process for Exploiting Synthetic Lethality Based on OverExpression of MYC Oncogene” (priority 2017, published 2018).
